Source: the supplement of paper PMC8967900

Key:
Test in all cases: selective drug sensitivity score (sDSS, relative to normal bone marrow) (sDSS (score)); higher = more potent and effective on the cell line relative to normal bone marrow cells
Settings in all cases: 72 h
[1] = test system: COG-LL-317
[2] = test system: HPB-ALL
[3] = test system: KASUMI-9
[4] = test system: MOLT-14
[5] = test system: 380
[6] = test system: DND-41
[7] = test system: CCRF-HSB2
[8] = test system: COG-LL-332h
[9] = test system: ALL-PO
[10] = test system: COG-LL-394h
[11] = test system: KOPN-8
[12] = test system: MOLT-16
[13] = test system: REH
[14] = test system: COG-LL-402h
[15] = test system: MHH-CALL-3
[16] = test system: MN-60
[17] = test system: JURKAT
[18] = test system: P12-ICHIKAWA
[19] = test system: RCH-ACV
[20] = test system: HAL-01
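Further: ALL cell lines in 384-well plates, five doses spanning 10,000-fold, each plate scaled between vehicle and 100 µmol/L benzalkonium chloride controls, sDSS an adapted area-under-curve metric.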

SMILES | selective drug sensitivity score [1] | selective drug sensitivity score [2] | selective drug sensitivity score [3] | selective drug sensitivity score [4] | selective drug sensitivity score [5] | selective drug sensitivity score [6] | selective drug sensitivity score [7] | selective drug sensitivity score [8] | selective drug sensitivity score [9] | selective drug sensitivity score [10] | selective drug sensitivity score [11] | selective drug sensitivity score [12] | selective drug sensitivity score [13] | selective drug sensitivity score [14] | selective drug sensitivity score [15] | selective drug sensitivity score [16] | selective drug sensitivity score [17] | selective drug sensitivity score [18] | selective drug sensitivity score [19] | selective drug sensitivity score [20]
Cn1ncc(Cl)c1-c1cc(C(=O)N[C@H](CN)Cc2cccc(F)c2)sc1Cl [Afuresertib] (top concentration 1000 nM) | 5.26 | 2.86 | 1.86 | 0.16 | 2.46 | -2.34 | 0.86 | 2.86 | 4.26 | -0.94 | 6.06 | 10.4 | 3.56 | 4.56 | -1.94 | -0.54 | 3.86 | -0.44 | 5.36 | 3.96
COc1ccc(S(=O)(=O)Nc2cccnc2Nc2ccc(O)cc2)cc1 [ABT-751] (top concentration 10000 nM) | 11.4 | 13.2 | 10.4 | 11.9 | 8.72 | 6.12 | 13 | 11.1 | 13.3 | 3.72 | 14.6 | 12.6 | 15.4 | 8.92 | 3.72 | 5.42 | 15.6 | 10.4 | 11.7 | 11.7
Cn1cncc1[C@@](N)(c1ccc(Cl)cc1)c1ccc2c(c1)c(-c1cccc(Cl)c1)cc(=O)n2C [Tipifarnib] (top concentration 10000 nM) | 15.3 | 6.1 | 3.1 | 11.9 | 9.2 | 2.8 | 9.4 | 9.3 | 9 | -1.1 | 11.2 | 11.8 | 14 | 6.6 | 7 | 2 | 3.6 | 9.6 | 6.9 | 6.3
COc1cc(N2CCC(N3CCN(C)CC3)CC2)ccc1Nc1ncc(Cl)c(Nc2ccccc2P(C)(C)=O)n1 [Brigatinib] (top concentration 1000 nM) | -2.34 | 3.06 | 3.56 | 3.16 | -3.34 | 7.16 | -1.14 | -3.34 | 4.16 | -1.84 | -3.34 | -3.34 | -3.34 | -2.04 | -3.34 | -2.54 | -3.34 | -3.34 | 8.86 | 6.06
CC1(C)CC[C@]2(NC(=O)C(C)(F)F)CC[C@]3(C)[C@H](C(=O)C=C4[C@@]5(C)C=C(C#N)C(=O)C(C)(C)[C@@H]5CC[C@]43C)[C@@H]2C1 [Omaveloxolone] (top concentration 10000 nM) | 4.88 | 3.58 | 1.88 | 1.58 | 10.9 | 3.98 | 3.78 | 3.48 | 3.08 | 0.48 | 8.68 | 4.88 | 2.58 | 3.38 | 10.1 | 1.08 | 0.88 | 1.88 | 6.28 | 3.58
COc1ccc(Cn2ccc3ccc(C(=O)NO)cc32)cc1 (top concentration 10000 nM) | 13.7 | 0.84 | 2.24 | 5.64 | 10.2 | 2.94 | 6.64 | 8.14 | 2.84 | 0.94 | 8.74 | 4.04 | 2.54 | 5.44 | 1.74 | 3.44 | 2.84 | 2.34 | 1.54 | 5.84
CC(=O)Nc1cccc(-n2c(=O)n(C3CC3)c(=O)c3c(Nc4ccc(I)cc4F)n(C)c(=O)c(C)c32)c1 [Trametinib] (top concentration 250 nM) | -7.74 | -0.24 | -1.14 | 6.96 | 3.56 | 2.16 | -1.54 | -6.04 | -1.44 | -4.34 | 4.36 | -1.94 | -8.04 | -2.54 | 9.46 | -8.04 | -7.94 | -3.64 | -8.04 | 2.36
COC[C@H](NC(=O)c1cnc(C)s1)C(=O)N[C@@H](COC)C(=O)N[C@@H](Cc1ccccc1)C(=O)[C@@]1(C)CO1 [Oprozomib] (top concentration 2500 nM) | 7.9 | -0.5 | 3.2 | 2.8 | 0.3 | 11.1 | 14.2 | 10.6 | 0.8 | 1.2 | 3 | 4.7 | -0.4 | 2.2 | 3.3 | -4.3 | 0.3 | 2.1 | -1.1 | -0.8
N[C@@H]1CCCN(c2c(/C=C3\SC(=O)NC3=O)cccc2-c2ccccc2)C1 [AZD1208] (top concentration 10000 nM) | -4.4 | -4.4 | -1.7 | 1.5 | 14.8 | -1.3 | 6.5 | -2.9 | 8.5 | 1 | 7.4 | -4.4 | 5.5 | -4.4 | -4.4 | -1.8 | -4.2 | -4 | 0.6 | 6.3
